These results are taken from US20060171983A1, “Use of Vitamin D receptor activators or Vitamin D analogs to treat cardiovascular disease” (priority 2003, published 2006).

Entries after “also recorded” stand apart in the source; their conditions may differ.

Data set [1] can be described thus: Active calcium transport in duodenum ex vivo. Also on record: species or system rat. As to conditions: uremic rats with SHPT.
The test system of a further data set is PAI-1. Description: PAI-1 Western blot in primary culture of human coronary artery smooth muscle cells. As to conditions: 24 hr. The data set is classed as cell-based. Here is the method: Human coronary artery smooth muscle cells were incubated with paricalcitol or calcitriol at the indicated concentration for 24 hr at 37° C. Samples were solubilized in SDS-PAGE sample buffer, and the protein content in each sample was determined by the Bio-Rad dye-binding protein assay. Samples were resolved by SDS-PAGE using a 4-12% gel, and proteins were electrophoretically transferred to PVDF membrane for Western blotting. The membrane was blotted for 1 h at 25° C. with 5% nonfat dry milk in PBS-T and then incubated with a mouse anti-PAI-1 monoclonal antibody in PBS-T overnight at 4° C. The membrane was washed with PBS-T and incubated with a horseradish peroxidase-labeled […] antibody for 1 h at 25° C. The membrane was then incubated with detection reagent (SuperSignal WestPico). The specific bands were visualized by exposing the paper to Kodak BioMax films.
Background: Immunoblotting shows a protein as a band on a membrane.

Data set [2] can be described thus: Historical cohort of vascular access changes in HD patients with AV fistula. The data set is classed as in vivo, human. The protocol:
Methods: A historical cohort of 2112 adult patients new to HD, with an AV fistula as the initial primary vascular access were followed over a 35-month period (January 1999 thru November 2001) using a dialysis provider database. Patients were treated with Zemplar or no vitamin D therapy; patients receiving Zemplar therapy received at least 10 doses and remained on the same therapy. Descriptive summary statistics were used to summarize baseline characteristics and the total number of vascular access changes per year between treatment modalities. In addition, regression models were used to evaluate the association between Zemplar or no vitamin D therapy and the total number of vascular access changes per year.

The test system of data set [3] is renin mRNA expression in As4.1-hVDR cells. Description: Northern blot of renin mRNA expression in As4.1-hVDR cells. It is filed as cell-based. The source says:
Using an in vitro cell culture system, the activity of paricalcitol to suppress renin gene expression was examined using previously published techniques (1,25-Dihydroxyvitamin D3 is a negative endocrine regulator of the renin-angiotensin system, J. Clin. Invest., July 2002). […] This inhibitory effect is confirmed by renin promoter-luciferase reporter assays, which examine the activity of paricalcitol to suppress renin gene transcription.
In the present study, an investigation was made of the in vitro and in vivo activity of paricalcitol, a FDA-approved low calcemic vitamin D analog, to inhibit renin biosynthesis. To this end, As4.1-hVDR cells, a JG cell-like cell line stably transfected with human VDR, was treated with paricalcitol or 1,25(OH)2D3 at doses ranging from 10^−10 to 10^−7 M for 24 hours, and its renin-inhibiting activity was assessed by Northern blot analyses; the cells were also transfected with renin gene promoter-luciferase reporter plasmid, and luciferase activity was determined in the presence and absence of paricalcitol or 1,25(OH)2D3.

The test system of the next data set is 24(OH)ase. As to the kind of experiment: Effect of drugs on the expression of 24(OH)ase. It is filed as cell-based. As to conditions: relative to calcitriol. Here is the method: Two observations may be noted in these studies: (1) 100% inhibition of growth was never achieved even at 1 μM of any of the test compound. Confocal microscopy studies confirm that, although these drugs are potent in inducing the translocation of VDR from cytoplasm to nucleus, not all cells respond to VDRAs even after 2 h of exposure, which may explain the <100% inhibition. […] Paricalcitol is usually dosed approximately 4 fold higher than calcitriol in the clinical situation, which may translate into a 4-fold higher potency in regulating the function of smooth muscle cells.

A short description of data set [4]: Observational cohort study of hospitalization outcomes in hemodialysis patients. The data set is classed as in vivo, human. From the text:
This study was expanded to include patients who received no Vitamin D receptor activator treatment. [“Improved hospitalization outcomes in hemodialysis patients treated with paricalcitol.” J. Melnick, et al., abstract book from World Congress of Nephrology, Jun. 8-12, 2003, Berlin.

On to `C[C@H](/C=C/[C@H](C)C(C)(C)O)[C@H]1CC[C@H]2/C(=C/C=C3C[C@@H](O)C[C@H](O)C3)CCC[C@]12C` [paricalcitol], for which the “active calcium transport in duodenum ex vivo” value in data set [1] is “no effect”. The “potency in reducing the PAI level” value with PAI-1 is on record as “equally potent”. For the same molecule, in data set [2] (HD patients with AV fistula, p=0.0034 vs no D), the “total number of vascular access changes (average)” value came out at 0.6 changes per year. Moreover, the “more vascular access changes in No D group than in Zemplar patients” value in data set [2] (negative binomial regression, p=0.038) is on record as 28%. Further, the “renin-inhibiting potency relative to calcitriol / 1,25(OH)2D3” value in data set [3] is on record as “comparable to that of 1,25(OH)2D3; also recorded: a bit more potent than calcitriol”. Besides, the “effect on renin mRNA expression” value in data set [3] (10^-10 to 10^-7 M, 24 hours) is given as “suppresses; also recorded: dose-dependently inhibits”. The “potency on stimulating the expression of 24(OH)ase” value in the data set with 24(OH)ase is reported as “less potent than calcitriol”. In data set [4] (hemodialysis patients, FIG. 2), the “median number of days spent in the hospital (hospital days per year)” value stood at 5.2 days and the “median number of hospitalizations in a year” value is reported as 1.5. In addition, in data set [4] (regression analysis, FIG. 3), the “fewer hospital days compared to the No Vitamin D group” value turned out to be 17.5 days and the “fewer hospitalizations compared to the No Vitamin D group” value was 1.2.
